Measurements: patent publication US20230339981A1, “KRAS G12D MODULATING COMPOUNDS” (priority 2022, published 2023)

Legend:
[1] = test system: AsPC-1 (KRAS G12D) cells; assay: 3D cell viability assay (spheroids, CellTiter-Glo 3D); assay type: cell-based; settings: AsPC-1 cells, 3D spheroids, 4 days
Method in brief: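 AsPC-1 cells (1000/well) in DMEM with 10% FBS formed spheroids over 3 days at 37 °C in ultra-low attachment plates, then were treated with 1:3 serial dilutions for 4 days. Viability read by CellTiter-Glo 3D luminescence; EC50 as concentration giving 50% signal decrease, sigmoidal fit.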

[2] = target: GDP-loaded KRAS G12D (Homo sapiens (Human), UniProt P01116, G12D); assay: KRAS G12D (GDP) biochemical assay (TR-FRET probe displacement); assay type: binding; settings: 2 hours
Method in brief: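 TR-FRET probe displacement: 1:3 DMSO serial dilutions pre-incubated 30 min with GDP-bound KRAS G12D, followed by Eu-streptavidin/probe for 2 h at room temperature (Hepes pH 7.4, NaCl, MgCl2, Tween-20 buffer). IC50 defined as concentration halving TR-FRET ratio, from sigmoidal dose-response fit.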

[3] = test system: GP2D (KRAS G12D) cells; assay: 2D cell viability assay (CellTiter-Glo); assay type: cell-based; settings: 4 days
Method in brief: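 Viability was read by CellTiter-Glo after 4 days at 37 °C of 2D culture of KRAS G12D GP2D cells (1000/well, RPMI, 10% FBS) on pre-spotted threefold compound dilutions. EC50 was fitted with a sigmoidal dose-response model as the point of half-maximal luminescence loss.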

GDP-loaded KRAS G12D, sequence (P01116-2 other isoform, or with tags, fused parts or gaps G12D): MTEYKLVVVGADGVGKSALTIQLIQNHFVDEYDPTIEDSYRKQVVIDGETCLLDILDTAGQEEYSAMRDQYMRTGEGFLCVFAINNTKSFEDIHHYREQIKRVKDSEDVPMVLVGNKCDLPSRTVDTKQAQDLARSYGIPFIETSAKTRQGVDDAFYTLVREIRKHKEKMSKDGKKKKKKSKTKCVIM

Compound | EC50 ([1]; Homo sapiens, ASPC1, 96 h) [nM] | IC50 [2] [nM] | EC50 ([3]; GP2d, 96 h) [nM] | EC50 [1] [nM] | EC50 [3] [nM]
C#Cc1c(F)ccc2cc(O)cc(-c3nc4c5c(nc(OCC6(CN7CCC(COC(C(F)(F)F)(C(F)(F)F)C(F)(F)F)CC7)CC6)nc5c3F)N3C[C@H]5CC[C@H](N5)[C@H]3CC4)c12 [Example 143, 5-ethynyl-6-fluoro-4-((5aR,6S,9R)-1-fluoro-12-((1-((4-(((1,1,1,3,3,3-hexafluoro-2-(trifluoromethyl)propan-2-yl)oxy)methyl)piperidin-1-yl)methyl)cyclopropyl)methoxy)-4,5,5a,6,7,8,9,10-octahydro-3,10a,11,13,14-pentaaza-6,9-methanonaphtho[1,8-ab]heptalen-2-yl)naphthalen-2-ol] | 110 | 1.9 | 3.1 | – | –
C#Cc1c(F)ccc2cc(O)cc(-c3nc4c5c(nc(OC[C@@]67CCCN6[C@H](COC(C6CC6)C(F)(F)F)CC7)nc5c3F)N3C[C@H]5CC[C@H](N5)[C@H]3CC4)c12 (stereo partly drawn) [Example 147, 4-((5aR,6S,9R)-12-(((3S,7aS)-3-((1-cyclopropyl-2,2,2-trifluoroethoxy)methyl)tetrahydro-1H-pyrrolizin-7a(5H)-yl)methoxy)-1-fluoro-4,5,5a,6,7,8,9,1O-octahydro-3,10a,11,13,14-pentaaza-6,9-methanonaphtho[1,8-ab]heptalen-2-yl)-5-ethynyl-6-fluoronaphthalen-2-ol] | – | < 0.1 | – | 19 | 1.3
C#Cc1c(F)ccc2cc(O)cc(-c3nc4c5c(nc(OC[C@@]67CCCN6[C@H](COc6ccnc(C(F)(F)F)n6)CC7)nc5c3F)N3C[C@H]5CC[C@H](N5)[C@H]3CC4)c12 [Example 148, 5-ethynyl-6-fluoro-4-((5aR,6S,9R)-1-fluoro-12-(((3S,7aS)-3-(((2-(trifluoromethyl)pyrimidin-4-yl)oxy)methyl)tetrahydro-1H-pyrrolizin-7a(5H)-yl)methoxy)-4,5,5a,6,7,8,9,1O-octahydro-3,10a,11,13,14-pentaaza-6,9-methanonaphtho[1,8-ab]heptalen-2-yl)naphthalen-2-ol] | 7.7 | 0.1 | 0.7 | – | –
C#Cc1c(F)ccc2cc(O)cc(-c3nc4c5c(nc(OC[C@@]67CCCN6[C@H](COc6cnc(C(F)(F)F)cn6)CC7)nc5c3F)N3C[C@H]5CC[C@H](N5)[C@H]3CC4)c12 [Example 155, 5-ethynyl-6-fluoro-4-((5aR,6S,9R)-1-fluoro-12-(((3S,7aS)-3-(((5-(trifluoromethyl)pyrazin-2-yl)oxy)methyl)tetrahydro-1H-pyrrolizin-7a(5H)-yl)methoxy)-4,5,5a,6,7,8,9,10-octahydro-3,10a,11,13,14-pentaaza-6,9-methanonaphtho[1,8-ab]heptalen-2-yl)naphthalen-2-ol] | 5.2 | 0.1 | 0.3 | – | –
C#Cc1c(F)ccc2cc(O)cc(-c3nc4c5c(nc(OC[C@@]67CCCN6[C@H](COc6ncccc6OC(F)(F)F)CC7)nc5c3F)N3C[C@H]5CC[C@H](N5)[C@H]3CC4)c12 [Example 160, 5-ethynyl-6-fluoro-4-((5aR,6S,9R)-1-fluoro-12-(((3S,7aS)-3-(((3-(trifluoromethoxy)pyridin-2-yl)oxy)methyl)tetrahydro-1H-pyrrolizin-7a(5H)-yl)methoxy)-4,5,5a,6,7,8,9,10-octahydro-3,10a,11,13,14-pentaaza-6,9-methanonaphtho[1,8-ab]heptalen-2-yl)naphthalen-2-ol] | 16 | 0.2 | 1.4 | – | –
C#Cc1c(F)ccc2cc(O)cc(-c3nc4c5c(nc(OCC6(CN7CCC(OC(F)(F)F)CC7)CC6)nc5c3F)N3C[C@H]5CC[C@H](N5)[C@H]3CCC4)c12 [Example 161, 5-ethynyl-6-fluoro-4-((6aR,7S,10R)-1-fluoro-13-((1-((4-(trifluoromethoxy)piperidin-1-yl)methyl)cyclopropyl)methoxy)-5,6,6a,7,8,9,10,11-octahydro-4H-3,11a,12,14,15-pentaaza-7,10-methanocyclohepta[4,5]cycloocta[1,2,3-de]naphthalen-2-yl)naphthalen-2-ol] | 23 | 0.3 | 0.3 | – | –
C#Cc1c(F)ccc2cc(O)cc(-c3nc4c5c(nc(OC[C@@]67CCCN6[C@H](CF)CC7)nc5c3F)N3C[C@H]5CC[C@H](N5)[C@H]3CC4)c12 [Example 165, 5-ethynyl-6-fluoro-4-((5aR,6S,9R)-1-fluoro-12-(((3S,7aS)-3-(fluoromethyl)tetrahydro-1H-pyrrolizin-7a(5H)-yl)methoxy)-4,5,5a,6,7,8,9,10-octahydro-3,10a,11,13,14-pentaaza-6,9-methanonaphtho[1,8-ab]heptalen-2-yl)naphthalen-2-ol] | 3.9 | < 0.1 | 0.7 | – | –
C#Cc1c(F)ccc2cccc(-c3nc4c5c(nc(OC[C@@]67CCCN6[C@H](CF)CC7)nc5c3F)N3C[C@H]5CC[C@H](N5)[C@H]3CC4)c12 [Example 166, (5aR,6S,9R)-2-(8-ethynyl-7-fluoronaphthalen-1-yl)-1-fluoro-12-(((3S,7aS)-3-(fluoromethyl)tetrahydro-1H-pyrrolizin-7a(5H)-yl)methoxy)-4,5,5a,6,7,8,9,10-octahydro-3,10a,11,13,14-pentaaza-6,9-methanonaphtho[1,8-ab]heptalene] | 110 | 0.3 | 3.5 | – | –
C#Cc1c(F)ccc2cc(O)cc(-c3nc4c5c(nc(OCC6(CN7CCC(CC(F)(F)F)CC7)CC6)nc5c3F)N3C[C@H]5CC[C@H](N5)[C@H]3CC4)c12 [Example 167, 5-ethynyl-6-fluoro-4-((5aR,6S,9R)-1-fluoro-12-((1-((4-(2,2,2-trifluoroethyl)piperidin-1-yl)methyl)cyclopropyl)methoxy)-4,5,5a,6,7,8,9,10-octahydro-3,10a,11,13,14-pentaaza-6,9-methanonaphtho[1,8-ab]heptalen-2-yl)naphthalen-2-ol] | 32 | < 0.1 | 0.7 | – | –
C#Cc1c(F)ccc2cc(O)cc(-c3nc4c5c(nc(OCC6(CN7CCC(OC)(C(F)(F)F)CC7)CC6)nc5c3F)N3C[C@H]5CC[C@H](N5)[C@H]3CC4)c12 [Example 168, 5-ethynyl-6-fluoro-4-((5aR,6S,9R)-1-fluoro-12-((1-((4-methoxy-4-(trifluoromethyl)piperidin-1-yl)methyl)cyclopropyl)methoxy)-4,5,5a,6,7,8,9,10-octahydro-3,10a,11,13,14-pentaaza-6,9-methanonaphtho[1,8-ab]heptalen-2-yl)naphthalen-2-ol] | 24 | 0.2 | 0.5 | – | –
C#Cc1c(F)ccc2cccc(-c3nc4c5c(nc(OC[C@@]67CCCN6C[C@H](F)C7)nc5c3F)N3C[C@H]5CC[C@H](N5)[C@H]3[C@H](CC)O4)c12 [Example 169, (5S,5aS,6S,9R)-5-ethyl-2-(8-ethynyl-7-fluoronaphthalen-1-yl)-1-fluoro-12-(((2R,7aS)-2-fluorotetrahydro-1H-pyrrolizin-7a(5H)-yl)methoxy)-5a,6,7,8,9,10-hexahydro-5H-4-oxa-3,10a,11,13,14-pentaaza-6,9-methanonaphtho[1,8-ab]heptalene] | 190 | 0.8 | 26.5 | – | –
C#Cc1c(F)ccc2cccc(-c3nc4c5c(nc(OC[C@@]67CCCN6C[C@H](F)C7)nc5c3F)N3C[C@H]5CC[C@H](N5)[C@@H]3CC4)c12 [Example 170, (5aS,6S,9R)-2-(8-ethynyl-7-fluoronaphthalen-1-yl)-1-fluoro-12-(((2R,7aS)-2-fluorotetrahydro-1H-pyrrolizin-7a(5H)-yl)methoxy)-4,5,5a,6,7,8,9,10-octahydro-3,10a,11,13,14-pentaaza-6,9-methanonaphtho[1,8-ab]heptalene] | > 1000 | 18.1 | 100 | – | –
C#Cc1c(F)ccc2cccc(-c3nc4c5c(nc(OC[C@@]67CCCN6C[C@H](F)C7)nc5c3F)N3C[C@H]5CC[C@H](N5)[C@H]3CC[C@H]4C)c12 [Example 171, (4R,6aR,7S,10R)-2-(8-ethynyl-7-fluoronaphthalen-1-yl)-1-fluoro-13-(((2R,7aS)-2-fluorotetrahydro-1H-pyrrolizin-7a(5H)-yl)methoxy)-4-methyl-5,6,6a,7,8,9,10,11-octahydro-4H-3,11a,12,14,15-pentaaza-7,10-methanocyclohepta[4,5]cycloocta[1,2,3-de]naphthalene] | 120 | < 0.1 | 1.9 | – | –
C#Cc1c(F)ccc2cccc(-c3nc4c5c(nc(OC[C@@]67CCCN6C[C@H](F)C7)nc5c3F)N3C[C@H]5CC[C@H](N5)[C@H]3C[C@@H]4F)c12 [Example 172, (4S,5aR,6S,9R)-2-(8-ethynyl-7-fluoronaphthalen-1-yl)-1,4-difluoro-12-(((2R,7aS)-2-fluorotetrahydro-1H-pyrrolizin-7a(5H)-yl)methoxy)-4,5,5a,6,7,8,9,10-octahydro-3,10a,11,13,14-pentaaza-6,9-methanonaphtho[1,8-ab]heptalene] | 480 | 3.5 | 65.3 | – | –
